Tests used:
[1] = system: Doxorubicin-treated senescent cells (SnCs) and non-senescent cells (ARPE-19); assay: Selective killing of senescent cells, propidium iodide staining; assay type: cell-based, human; conditions: PI staining
Protocol: To determine whether Nutlin-3 selectively killed senescent cells, the cells were treated with Nutlin-3 as follows and stained with propidium iodide.
Doxorubicin-treated senescent cells (SnCs) grown in the 24-well plate of Example 1 and non-senescent cells (non-SnCs) were treated with Nutlin-3 at different concentrations. After 24 hours, the medium was removed, and a medium including propidium iodide (PI, BD Biosciences, 51-66211E, 1.5 ug/ml) and Hoechst 33342 (Invitrogen, H1399, 1 ug/ml) was added to each well. After 30 minutes, images were obtained using an ultra-high-resolution confocal laser scanning microscope (Carl Zeiss, LSM 800).

p53 = p53 overexpression induction, western blot; assay type: cell-based, human; conditions: Nutlin-3 at different concentrations
Protocol: Doxorubicin-treated senescent cells (SnCs) grown in the 6-well plate of Example 1 and non-senescent cells (non-SnCs) were treated with different concentrations of Nutlin-3, and then, dissolved in RIPA buffer (Thermo Fisher Scientific, 89901) supplemented with protease inhibitor cocktail (Roche, 11697498001, Basel, Switzerland). The protein concentration of cells was quantified using BCA assay (Pierce, 23227, Waltham, USA). The same amount of protein was separated by SDS-PAGE in a 10-12% polyacrylamide gel and transferred to a polyvinylidene difluoride (PVDF) membrane. Then, the PVDF membrane was blocked with 5% skim milk powder in buffer for 1 hour, and anti-p53 (1: 500, Santa Cruz Biotechnology, SC-126) and anti-β-actin (1: 2000, Abcam, ab8226) antibodies were added thereto, incubated overnight at 4° C., and then incubated with horseradish peroxidase-conjugated anti-mouse IgG (1: 5000, Cell Signaling, 7076S) antibodies. The immunoreactive proteins were then visualized using a chemiluminescent substrate (Amersham, RDN2232, Little Chalfont, UK) and quantified with a densitometer using ImageJ software (NIH, USA). All experiments were repeated at least three times.

[2] = system: senescent cells of the retinal tissue; assay: Senescent cell killing in vivo, SA-β-gal staining of retinal tissue; conditions: 20 ng/μl Nutlin-3 intravitreal, 2 injections, Dox or Alu RNA induced mice
Description: Anterior eyeballs were dissected in cold PBS.

retinal tissue [3] = assay: Lesion mitigation in vivo, color fundus and fundus autofluorescence images; conditions: 20 ng/μl Nutlin-3 intravitreal, senescence-induced mice
Protocol: (§1) After dilation of the eye with TRC-50 IX camera (Topcon, Tokyo, Japan) connected to a digital imaging system (Nikon, Japan) and HRA2 (Heidelberg Engineering, Heidelberg, Germany), the color fundus image and fundus autofluorescence image of the eye of the mice were each captured. […] In addition, in order to identify the cell tissue alignment state, ZO-1 expression was confirmed. Specifically, after blocking the retinal tissue with 1% BSA in PBS for 1 hour, fixed tissue or cells were incubated with primary antibody against ZO-1 (1:250, Invitrogen) overnight at 4° C. Stained tissues or cells were washed twice with PBS for 5 minutes and incubated with Alexa Fluor-conjugated secondary antibody for 2 hours at room temperature. As the secondary antibody, Alexa Fluor 555-conjugated goat anti-mouse IgG (Thermo Fisher Scientific, A-11029, Waltham, USA), Alexa Fluor 488-conjugated goat anti-mouse IgG (Thermo Fisher Scientific, A-21424), Alexa Fluor 555-conjugated goat anti-rabbit IgG (Thermo Fisher Scientific, A-21424), or Alexa Fluor 488-conjugated \u200b\u200b goat anti-rabbit IgG (Thermo Fisher Scientific, A-11034) was used. All secondary antibodies were used after being diluted at the ratio of 1:1000. […]

ZO-1 = assay: Cell tissue alignment state in vivo, ZO-1 expression; conditions: 20 ng/μl Nutlin-3 intravitreal, senescence-induced mice
Protocol: as §1

retinal tissue [4] = assay: Drusen and Bruch's membrane thickness in vivo by TEM after Nutlin-3; design: species or system mice; conditions: doxorubicin and Nutlin-3 group
Protocol: The eyeball of mice in a group injected with a vehicle alone as in Example 9, a group injected with doxorubicin and a vehicle, and a group injected with doxorubicin and Nutlin-3, were fixed with a solution including 2% glutaraldehyde and 3.75% sucrose in 0.1 M sodium phosphate buffer (pH 7.0) for 30 minutes, and washed three times with 0.1 M PBS including 3.75% sucrose for 30 minutes to prepare a sample for TEM. The eye was fixed with a solution including 0.1% osmium tetraoxide and 5% sucrose in 0.05 M sodium phosphate buffer (pH 7.0) for 1 hour and rinsed three times with distilled water. The sample was then dehydrated in a series of acetone solutions (step 20%), which are graded, and embedded in an epoxy resin. The resin was polymerized at 70° C. for 12 hours. Ultra-thin sections (100 nm) were obtained using RMC CR-X ultra microtomes and then images thereof were obtained using a JEOL JEM-1400 electron microscope. The thickness of the Bruch's membrane was measured using TEM. The average thickness of the Bruch's film was determined by measuring the thicknesses in the nine images of respective groups, and the results are shown in FIGS. 16 and 17.

retinal tissue [5] = assay: Lesion alleviation in vivo with combination, fundus autofluorescence image; conditions: senescence-induced mice of Example 12
Protocol: Under an optical microscope (Olympus SZ51, Tokyo, Japan), a small hole was made in the limbus using a 30-gage sterile needle (BD Science, San Jose, USA). Then, a blunt 35-gage Hamilton microsyringe (Hamilton Company, NV, USA) was slowly inserted through the hole. After injecting 1 uL of 100 ng/μl Dox or 1.4 μg/μl Alu RNA into the subretinal space of C57BL/6N or C57BL/6J mice for 7 days, 20 ng/μl Nutlin-3 (#SML0580, St. Louis, USA) or vehicle (0.4% DMSO in normal saline) was administered to the retina on day 0 and day 3, and 50 mg/kg of Nutlin-3 and 100 mg/kg of nicotinamide were mixed at the ratio of 1:2 and the mixture was administered orally through the feeding needle catheter every day for 3 days.
After dilation of the eye with TRC-50 IX camera (Topcon, Tokyo, Japan) connected to a digital imaging system (Nikon, Japan) and HRA2 (Heidelberg Engineering, Heidelberg, Germany), the fundus autofluorescence image of the eye of the mice was captured.

ZO-1 or APOE = assay: ZO-1 and drusen marker APOE expression in vivo with combination; conditions: senescence-induced mice of Example 12
Protocol: In addition, the expression of ZO-1 and the expression of the drusen marker APOE were confirmed to identify the cell tissue alignment state. Specifically, after blocking the retinal tissue with 1% BSA in PBS for 1 hour, fixed tissue or cells were incubated with primary antibody (1:50, Santa Cruz Biotechnology) against ZO-1 (1:250, Invitrogen) or APOE overnight at 4° C. Stained tissues or cells were washed twice with PBS for 5 minutes and incubated with Alexa Fluor-conjugated secondary antibody for 2 hours at room temperature. As the secondary antibody, Alexa Fluor 555-conjugated goat anti-mouse IgG (Thermo Fisher Scientific, A-11029, Waltham, USA), Alexa Fluor 488-conjugated goat anti-mouse IgG (Thermo Fisher Scientific, A-21424), Alexa Fluor 555-conjugated goat anti-rabbit IgG (Thermo Fisher Scientific, A-21424), or Alexa Fluor 488-conjugated \u200b\u200b goat anti-rabbit IgG (Thermo Fisher Scientific, A-11034) was used. All secondary antibodies were used after being diluted at the ratio of 1:1000. After incubation with the secondary antibody, tissues or cells were stained with nuclear dye DAPI (1:4000, Thermo Fisher Scientific, 62248) or Hoechst 33342 (1:3000, Thermo Fisher Scientific, H3570) in PBS for 15 minutes at room temperature. Thereafter, the tissues were then fixed in a fixing media (Ployscience, 18606-20, PA, USA).

ARPE-19 cells = assay: Induction of senescent cells by doxorubicin, SA-β-gal staining; assay type: cell-based, human; conditions: 250 nM doxorubicin, 3 days
Description: ARPE-19, a human retinal pigment epithelium (RPE) cell line, was induced into senescent cells using doxorubicin (Dox), which is used to form peroxide anions, induce DNA damage, and induce cell aging.
ARPE-19 cells were obtained from American Type Culture Collection (ATCC, CRL-2302, Va., U.S.A.), and cultured using a Dulbecco's modified Eagle's medium/nutrient mixture F-12 (WellGene, LM 002-04, Korea) supplemented with 10% fetal bovine serum (Invitrogen 16000, Waltham, U.S.A.) and penicillin-streptomycin (pen/strep, WellGene, LS 202-02) in a humidifying incubator having 5% CO2 at the temperature of 37° C. Cells were used after the cells were subcultured to 15-25 passages and reached the density population of about 70%-about 80%.
The cultured ARPE-19 cells were seeded in 24- or 6-well plates at a density of 25,000 or 100,000 cells per well prior to inducing cell aging with doxorubicin (Dox, Tocris Bioscience #2252, Bristol, UK). After 24 hours, 250 nM doxorubicin was added and the cells were incubated for another 3 days. After 3 days, the cells were placed in a doxorubicin-free medium and the medium was replaced daily. On day 10, senescent cells (SnCs) that were treated with doxorubicin and non-senescent cells (non-SnCs) that were not treated with doxorubicin but replaced with medium alone were seeded into 24- or 6-well plates for further experiments. […]

retinal tissue [6] = assay: Drusen and Bruch's membrane thickness by TEM after senescence induction with doxorubicin; assay type: in vivo, mice; conditions: 100 ng/μl Dox subretinal
Protocol: Under an optical microscope (Olympus SZ51, Tokyo, Japan), a small hole was made in the limbus using a 30-gage sterile needle (BD Science, San Jose, USA). Then, a blunt 35-gage Hamilton microsyringe (Hamilton Company, NV, USA) was slowly inserted through the hole. 1 uL of 100 ng/μl Dox or 1.4 μg/μl Alu RNA was injected into the subretinal space of C57BL/6N or C57BL/6J mice for 7 days. In addition, the eye of mice was fixed with a solution including 2% glutaraldehyde and 3.75% sucrose in 0.1 M sodium phosphate buffer (pH 7.0), for 30 minutes, and washed three times with 0.1 M PBS including 3.75% sucrose for 30 minutes to prepare a sample for TEM. The eye was fixed with a solution including 0.1% osmium tetraoxide and 5% sucrose in 0.05 M sodium phosphate buffer (pH 7.0) for 1 hour and rinsed three times with distilled water. The sample was then dehydrated in a series of acetone solutions (step 20%), which were graded, and embedded in an epoxy resin. The resin was polymerized at 70° C. for 12 hours. Ultra-thin sections (100 nm) were obtained using RMC CR-X ultra microtomes and then images thereof were obtained using a JEOL JEM-1400 electron microscope. The thickness of the Bruch's membrane was measured using TEM.

Structure (SMILES) | senescent cells killed compared with non-senescent cells ([1]; 50 uM Nutlin-3, 24 hours) [times] | senescent cells killed compared with non-senescent cells ([1]; 75 uM Nutlin-3, 24 hours) [times] | expression of p53 in senescent cells (p53) | β-galactosidase expression compared to vehicle group [2] | waste in fundus images compared to vehicle group (retinal tissue [3]) | cell tissue alignment (ZO-1) compared to vehicle group (ZO-1) | amount of drusen compared to vehicle-only senescent cells (retinal tissue [4]) | thickness of the Bruch's membrane compared to vehicle-only senescent cells (retinal tissue [4]) | waste in fundus autofluorescence image compared to vehicle group (retinal tissue [5]) | cell tissue alignment state (ZO-1) compared to vehicle group (ZO-1 or APOE) | induction of ARPE-19 cells into senescent cells (SA-β-gal staining) (ARPE-19 cells) | amount of drusen after senescent cell induction (retinal tissue [6]) | thickness of the Bruch's membrane after senescent cell induction (retinal tissue [6])
COc1ccc(C2=N[C@@H](c3ccc(Cl)cc3)[C@@H](c3ccc(Cl)cc3)N2C(=O)N2CCNC(=O)C2)c(OC(C)C)c1 [Nutlin-3] | 7 | 3 | further increased | low | significantly reduced | improved | reduced | reduced | significantly reduced | improved |  |  | 
COc1cccc2c1C(=O)c1c(O)c3c(c(O)c1C2=O)C[C@@](O)(C(=O)CO)C[C@@H]3O[C@H]1C[C@H](N)[C@H](O)[C@H](C)O1 [doxorubicin] |  |  |  |  |  |  |  |  |  |  | induced to senescent cells | increased | increased
